Values after ≈ are worked out from the molar mass of the structure shown. Active and inactive are the calls of the source. The rule behind the calls is not given here.
Legend:
Type in all cases: functional, organism-based
[1] = system: Phytophthora cactorum; experiment: Growth inhibition of Phytophthora cactorum after 48 hr
[2] = system: Phytophthora cactorum; experiment: Induction of changes in hyphae ultrastructures in Phytophthora cactorum assessed as mitochondria level changes at 0.052 ug/ml by transmission electron microscopy
[3] = system: Colletotrichum gloeosporioides; experiment: Growth inhibition of Colletotrichum gloeosporioides after 48 hr
[4] = system: Phytophthora cactorum; experiment: Induction of changes in hyphae ultrastructures in Phytophthora cactorum assessed as membranes obscuring at 0.052 ug/ml by transmission electron microscopy
[5] = system: Phytophthora cactorum; experiment: Induction of changes in hyphae ultrastructures in Phytophthora cactorum assessed as endoplasmic reticulum structure changes at 0.052 ug/ml by transmission electron microscopy
[6] = system: Phytophthora cactorum; experiment: Induction of changes in hyphae ultrastructures in Phytophthora cactorum assessed as cell wall thickening at 0.052 ug/ml by transmission electron microscopy
[7] = system: Rhizoctonia solani; experiment: Growth inhibition of Rhizoctonia solani after 48 hr
[8] = system: Alternaria humicola; experiment: Growth inhibition of Alternaria humicola after 48 hr
[9] = system: Phytophthora cactorum; experiment: Induction of changes in hyphae ultrastructures in Phytophthora cactorum assessed as plasmalemma invagination at 0.052 ug/ml by transmission electron microscopy; details: Plasma
[10] = system: Phytophthora cactorum; experiment: Induction of changes in hyphae ultrastructures in Phytophthora cactorum at 0.052 ug/ml by transmission electron microscopy
[11] = system: Fusarium solani; experiment: Growth inhibition of Fusarium solani after 48 hr

| SMILES | IC50 [1] [µg/mL] | Activity [2] | IC50 [3] [µg/mL] | Activity [4] | Activity [5] | Activity [6] | IC50 [7] [µg/mL] | IC50 [8] [µg/mL] | Activity [9] | Activity [10] | growth inhibition (GI) [11] |
| --- | --- | --- | --- | --- | --- | --- | --- | --- | --- | --- | --- |
| COCC(=O)N(c1c(C)cccc1C)C(C)C(=O)OC (configuration not stated) [METALAXYL] | 0.013 (≈ 0.0465 µM) | – | – | – | – | – | – | – | – | – | – |
| C=CCc1ccc(OC)c(OC)c1 [METHYLEUGENOL] | 0.052 (≈ 0.292 µM) | Active | 0.09 (≈ 0.505 µM) | Active | Active | Active | 0.279 (≈ 1.57 µM) | 0.144 (≈ 0.808 µM) | Active | Active | inactive |

Reference: ChEMBL document CHEMBL3044940, “Activities of essential oils from Asarum heterotropoides var. mandshuricum against five phytopathogens” (Crop Prot, 2010)
